Measurements published in article PMC3677030 (ChemMedChem, 2012).
Like-named read-outs stand apart in the source and are kept apart here.

Experiments:
[1] = target: T1, EphA2-ephrin-A1 interaction (EphA2-Fc ectodomain) (Mus musculus, UniProt Q03145); conditions: read-out: Ki, competitive antagonist of the EphA2 receptor; earlier work; cited from earlier work
[2] = test system: insulin-like growth factor receptor 1; conditions: cited from earlier work
[3] = target: T2, EGF receptor (Homo sapiens, UniProt P00533); conditions: cited from earlier work
T2 sequence (P00533 25-1210): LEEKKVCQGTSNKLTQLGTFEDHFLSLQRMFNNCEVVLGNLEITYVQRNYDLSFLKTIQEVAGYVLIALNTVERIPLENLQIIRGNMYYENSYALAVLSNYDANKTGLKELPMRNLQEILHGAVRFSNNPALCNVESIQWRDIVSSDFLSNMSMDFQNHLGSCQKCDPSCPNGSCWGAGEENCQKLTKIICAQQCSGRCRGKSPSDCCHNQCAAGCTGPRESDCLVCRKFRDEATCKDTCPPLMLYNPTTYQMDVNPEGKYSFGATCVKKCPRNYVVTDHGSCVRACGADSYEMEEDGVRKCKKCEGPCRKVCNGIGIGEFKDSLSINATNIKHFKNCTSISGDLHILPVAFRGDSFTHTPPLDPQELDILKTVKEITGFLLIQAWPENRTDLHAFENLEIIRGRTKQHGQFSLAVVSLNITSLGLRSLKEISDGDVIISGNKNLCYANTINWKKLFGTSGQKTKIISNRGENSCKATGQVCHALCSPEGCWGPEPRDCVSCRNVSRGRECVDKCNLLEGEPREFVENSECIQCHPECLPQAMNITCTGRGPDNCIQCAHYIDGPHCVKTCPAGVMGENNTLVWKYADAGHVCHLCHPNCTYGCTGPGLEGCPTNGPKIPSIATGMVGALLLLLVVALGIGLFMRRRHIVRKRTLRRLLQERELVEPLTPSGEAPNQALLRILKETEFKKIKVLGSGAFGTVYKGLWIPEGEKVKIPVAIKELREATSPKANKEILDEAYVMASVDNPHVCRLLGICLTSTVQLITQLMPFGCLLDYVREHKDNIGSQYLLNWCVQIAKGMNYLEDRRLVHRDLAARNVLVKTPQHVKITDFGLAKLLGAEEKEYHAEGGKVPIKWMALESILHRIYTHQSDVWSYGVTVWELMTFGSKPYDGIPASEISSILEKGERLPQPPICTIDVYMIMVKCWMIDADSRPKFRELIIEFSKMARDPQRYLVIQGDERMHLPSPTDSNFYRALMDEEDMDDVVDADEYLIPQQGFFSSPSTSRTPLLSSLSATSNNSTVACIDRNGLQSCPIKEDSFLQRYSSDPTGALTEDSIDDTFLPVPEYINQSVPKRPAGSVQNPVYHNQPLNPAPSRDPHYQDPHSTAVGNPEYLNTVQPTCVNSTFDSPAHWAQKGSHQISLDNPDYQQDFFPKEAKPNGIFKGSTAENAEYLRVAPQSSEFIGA

[4] = test system: insulin receptor; conditions: cited from earlier work
[5] = test system: VEGF receptor; conditions: cited from earlier work
[6] = target: T1, EphA2-ephrin-A1 interaction (EphA2-Fc ectodomain); assay type: binding; conditions: for Activity in EphA2-ephrin-A1 binding assay, in words: tested starting from 200 μM; for Schild plot slope: slope between 0.8 and 1.2 indicates competitive binding
[7] = target: T2, EGF receptor; test: EGF receptor phosphorylation induced by EGF in PC3 cells; assay type: cell-based; conditions: up to 100 μM, 30 ng/ml EGF
[8] = target: EphA2 receptor (Mus musculus, UniProt Q03145); test: Surface plasmon resonance; assay type: binding; conditions: for Kd: SPR
Chain of EphA2 receptor (Mus musculus, UniProt Q03145) (Q03145 26-538 limits assumed): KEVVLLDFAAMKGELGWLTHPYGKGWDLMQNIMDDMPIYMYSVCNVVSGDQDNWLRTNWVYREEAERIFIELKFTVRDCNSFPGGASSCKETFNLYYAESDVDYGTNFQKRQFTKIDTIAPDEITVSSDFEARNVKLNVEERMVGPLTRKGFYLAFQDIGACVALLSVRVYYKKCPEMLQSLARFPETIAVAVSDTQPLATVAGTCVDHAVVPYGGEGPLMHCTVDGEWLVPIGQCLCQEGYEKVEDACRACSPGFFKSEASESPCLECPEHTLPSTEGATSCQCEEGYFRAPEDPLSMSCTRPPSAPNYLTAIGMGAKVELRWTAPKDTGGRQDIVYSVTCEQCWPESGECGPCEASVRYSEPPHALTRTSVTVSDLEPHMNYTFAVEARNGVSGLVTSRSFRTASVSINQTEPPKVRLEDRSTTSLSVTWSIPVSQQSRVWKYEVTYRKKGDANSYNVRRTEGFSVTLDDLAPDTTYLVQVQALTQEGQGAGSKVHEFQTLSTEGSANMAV

[9] = test system: EphA receptors (vs EphB receptors); assay type: binding; conditions: compared with lithocholic acid
[10] = target: EphA2 receptor (Homo sapiens, UniProt P29317); test: EphA2 phosphorylation induced by ephrin-A1-Fc in PC3 cells; assay type: cell-based; conditions: no ephrin, data not shown
Chain of EphA2 receptor (Homo sapiens, UniProt P29317) (P29317 24-976): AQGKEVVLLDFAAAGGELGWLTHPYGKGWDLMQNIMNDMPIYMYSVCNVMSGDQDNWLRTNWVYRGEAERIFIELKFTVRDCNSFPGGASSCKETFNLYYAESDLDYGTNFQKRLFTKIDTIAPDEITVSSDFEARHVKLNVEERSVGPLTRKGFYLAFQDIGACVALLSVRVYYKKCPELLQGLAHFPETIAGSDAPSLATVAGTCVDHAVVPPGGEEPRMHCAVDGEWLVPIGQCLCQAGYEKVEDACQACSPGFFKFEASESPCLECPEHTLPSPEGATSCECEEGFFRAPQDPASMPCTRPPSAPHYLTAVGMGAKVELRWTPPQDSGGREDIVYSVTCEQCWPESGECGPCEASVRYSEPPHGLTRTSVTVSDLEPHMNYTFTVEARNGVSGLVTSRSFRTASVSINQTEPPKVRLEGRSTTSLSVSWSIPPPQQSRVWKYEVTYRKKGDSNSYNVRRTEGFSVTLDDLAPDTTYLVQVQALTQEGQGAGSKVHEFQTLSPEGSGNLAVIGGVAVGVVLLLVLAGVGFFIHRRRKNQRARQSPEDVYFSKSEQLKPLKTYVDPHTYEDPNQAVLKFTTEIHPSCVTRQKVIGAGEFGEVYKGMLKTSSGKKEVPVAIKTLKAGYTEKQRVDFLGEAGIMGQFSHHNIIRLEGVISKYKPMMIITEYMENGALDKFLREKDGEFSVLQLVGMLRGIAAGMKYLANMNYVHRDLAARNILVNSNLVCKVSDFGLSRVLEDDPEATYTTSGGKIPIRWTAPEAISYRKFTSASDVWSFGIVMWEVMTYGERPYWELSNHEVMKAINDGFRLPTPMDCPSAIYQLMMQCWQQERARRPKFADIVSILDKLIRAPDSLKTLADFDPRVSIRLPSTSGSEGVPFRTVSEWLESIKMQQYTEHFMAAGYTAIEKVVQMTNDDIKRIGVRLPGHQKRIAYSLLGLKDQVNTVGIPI

[11] = target: T3, EphB4 receptor (Homo sapiens, UniProt P54760); test: EphB4 phosphorylation induced by ephrin-B2-Fc in T47D cells; assay type: cell-based; conditions: no ephrin, data not shown
T3 sequence (P54760 16-987): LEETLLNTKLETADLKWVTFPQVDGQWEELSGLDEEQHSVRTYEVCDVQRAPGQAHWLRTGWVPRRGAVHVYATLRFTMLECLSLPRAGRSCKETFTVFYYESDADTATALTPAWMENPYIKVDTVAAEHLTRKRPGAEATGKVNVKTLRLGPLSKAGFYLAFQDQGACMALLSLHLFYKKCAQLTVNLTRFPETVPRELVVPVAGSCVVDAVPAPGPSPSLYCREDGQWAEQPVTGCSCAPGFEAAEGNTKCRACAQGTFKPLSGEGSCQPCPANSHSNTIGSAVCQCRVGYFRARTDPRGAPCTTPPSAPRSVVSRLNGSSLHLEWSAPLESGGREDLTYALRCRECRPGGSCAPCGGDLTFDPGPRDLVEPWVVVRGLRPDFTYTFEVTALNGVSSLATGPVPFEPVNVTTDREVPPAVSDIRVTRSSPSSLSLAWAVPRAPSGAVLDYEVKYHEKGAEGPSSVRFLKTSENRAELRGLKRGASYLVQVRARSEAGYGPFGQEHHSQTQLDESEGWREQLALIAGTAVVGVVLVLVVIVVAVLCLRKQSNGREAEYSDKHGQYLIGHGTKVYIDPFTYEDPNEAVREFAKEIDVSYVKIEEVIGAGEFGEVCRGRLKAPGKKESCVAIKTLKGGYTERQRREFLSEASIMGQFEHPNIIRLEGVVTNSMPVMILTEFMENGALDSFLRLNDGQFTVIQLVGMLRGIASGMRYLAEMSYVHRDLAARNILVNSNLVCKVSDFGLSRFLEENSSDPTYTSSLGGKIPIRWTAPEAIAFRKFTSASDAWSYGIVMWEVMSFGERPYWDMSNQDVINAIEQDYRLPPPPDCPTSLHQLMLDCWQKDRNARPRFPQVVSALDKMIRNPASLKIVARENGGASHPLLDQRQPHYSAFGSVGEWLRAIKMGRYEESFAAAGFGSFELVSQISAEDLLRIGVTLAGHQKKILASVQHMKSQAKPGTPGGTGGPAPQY

[12] = target: T4, recombinant human EphA2 kinase domain (Homo sapiens, UniProt P29317); test: EphA2 kinase assay; assay type: biochemical; conditions: 100 μM, 30 minutes
T4 sequence (P29317 613-875 limits assumed): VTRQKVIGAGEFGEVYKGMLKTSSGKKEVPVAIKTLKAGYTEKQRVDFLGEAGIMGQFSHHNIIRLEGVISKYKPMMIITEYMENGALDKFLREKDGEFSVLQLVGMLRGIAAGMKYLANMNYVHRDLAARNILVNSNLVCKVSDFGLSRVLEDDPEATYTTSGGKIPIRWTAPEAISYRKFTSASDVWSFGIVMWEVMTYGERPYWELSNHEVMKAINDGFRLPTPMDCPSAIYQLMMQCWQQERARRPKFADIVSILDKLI

T1 sequence (Q03145 26-538 limits assumed): as the sequence (Q03145 26-538 limits assumed) above

Row | Structure (SMILES) | Ki [6] | Activity in EphA2-ephrin-A1 binding assay, in words [6] | further results
1 | C[C@H](CCC(=O)O)[C@H]1CC[C@H]2[C@@H]3CC[C@@H]4C[C@H](O)CC[C@]4(C)[C@H]3CC[C@]12C [Compound 1, (3α,5β)-3-hydroxycholan-24-oic acid] | – | – | Ki [1]: 49 ± 3 µM; Effect on insulin-like growth factor receptor 1 [2]: lack of effects; Effect on EGF receptor [3]: lack of effects; Effect on insulin receptor [4]: lack of effects; Effect on VEGF receptor [5]: lack of effects
2 | C[C@H](CCC(=O)NO)[C@H]1CC[C@H]2[C@@H]3CC[C@@H]4C[C@H](O)CC[C@]4(C)[C@H]3CC[C@]12C [Compound 14, (3α,5β)-3-Hydroxycholan-24-hydroxamic acid] | > 200 µM | inactive or weakly active | –
3 | COC(=O)CC[C@@H](C)[C@H]1CC[C@H]2[C@@H]3CC[C@@H]4C[C@H](O)CC[C@]4(C)[C@H]3CC[C@]12C [Compound 13, methyl (3α,5β)-3-hydroxycholan-24-oate] | > 200 µM | inactive or weakly active | –
4 | C[C@H](CCC(=O)O)[C@H]1CC[C@H]2[C@@H]3CC[C@@H]4C[C@@H](S(=O)(=O)O)CC[C@]4(C)[C@H]3CC[C@]12C [Compound 11, (3β,5β)-3-sulfocholan-24-oic acid] | > 200 µM | inactive | –
5 | C[C@H](CCCO)[C@H]1CC[C@H]2[C@@H]3CC[C@@H]4C[C@H](O)CC[C@]4(C)[C@H]3CC[C@]12C [Compound 16, (3α,5β)-Cholan-3,24-diol] | 186 ± 27 µM | inactive or weakly active | –
6 | C[C@H](CCC(=O)O)[C@H]1CC[C@H]2[C@@H]3CC[C@@H]4C[C@@H](O)CC[C@]4(C)[C@H]3CC[C@]12C [Compound 10, (3β,5β)-3-hydroxycholan-24-oic acid] | – | – | IC50 [6]: 67 µM; Schild plot slope ([6]; listed as isolithocholic): 0.96 ± 007
7 | C[C@H](CCC(=O)O)[C@H]1CC[C@H]2[C@@H]3CC[C@@H]4C[C@H](O)CC[C@]4(C)[C@H]3C[C@H](O)[C@]12C [Compound 3, deoxycholic acid] | > 200 µM | inactive | –
8 | C[C@H](CCC(=O)NN)[C@H]1CC[C@H]2[C@@H]3CC[C@@H]4C[C@H](O)CC[C@]4(C)[C@H]3CC[C@]12C [Compound 15, (3α,5β)-3-Hydroxycholan-24-hydrazide] | > 200 µM | inactive or weakly active | –
9 | C[C@H](CCC(=O)O)[C@H]1CC[C@H]2[C@@H]3[C@H](O)C[C@@H]4C[C@H](O)CC[C@]4(C)[C@H]3CC[C@]12C [Compound 4, chenodeoxycholic acid] | > 200 µM | inactive | –
10 | C[C@H](CCC(=O)O)[C@H]1CC[C@H]2[C@@H]3CC[C@@H]4CCCC[C@]4(C)[C@H]3CC[C@]12C [Compound 12, (5β)-cholan-24-oic acid] | 5.1 ± 1.4 µM | – | Effect on EGF receptor activation induced by EGF [7]: did not interfere; Kd ([8]; KD from steady state analysis, steady state affinity): 1.16 µM; Kd ([8]; affinity constant (KD) from kinetic analysis, koff/kon): 8.45 µM; kon ([8]; read-out: association rate (kon)): 44000 M⁻¹ s⁻¹; koff ([8]; read-out: dissociation rate (koff)): 0.369 s⁻¹; Selectivity between Eph receptor subfamilies, in words [9]: more selective for the EphA receptor subfamily; Schild plot slope ([6]; listed as cholanic acid): 0.98 ± 002; Stimulation of EphA2 tyrosine phosphorylation by compound on its own [10]: did not stimulate; Stimulation of EphB4 tyrosine phosphorylation by compound on its own [11]: did not stimulate; Effect on EphA2 kinase activity [12]: did not affect
11 | C[C@H](CCC(=O)O)[C@H]1CC[C@H]2[C@@H]3[C@H](O)C[C@@H]4C[C@H](O)CC[C@]4(C)[C@H]3C[C@H](O)[C@]12C [Compound 2, cholic acid] | > 200 µM | inactive | –
